Columns and labels:
[1] = test system: gastric emptying; experiment: Test 1: gastric emptying enhancing activity (phenol red test meal); assay type: in vivo, Male Wistar rats; settings: po, 0.25 h; 2.0 mg/kg p.o., 60 min before test meal, rat; read-out: Gastric emptying enhancing activity, Increase (emptying rate vs control)
Experimental: The test was carried out according to the method of Scarpignato et al. [cf. Arch. int. Pharmacodyn., 246, 286-294 (1980)].
Male Wistar rats, weighing 130-150 g, were fasted for 18 hours before experimentation, and 1.5 ml of a test meal (phenol red 0.05% in a 1.5% aqueous methylcellulose solution) was given by gastric tube. Fifteen minutes after administration of the meal the stomach was removed and the amount of phenol red remaining in the stomach was measured.
The test compounds, dissolved or suspended in a 0.5% tragacanth solution, were orally administered 60 minutes before administration of the test meal. The rate of gastric emptying was calculated according to the amount of phenol red remaining in the stomach, and the activity of the test compounds was expressed in terms of increase in the emptying rate from the control. The number of animals used was 5 for the control and each dose of metoclopramide hydrochloride monohydrate and 4 for each dose of the other test compounds.

[2] = test system: central nervous system; experiment: Test 3: effect on the central nervous system (CNS effect), Irwin observation; settings: 100 mg/kg, p.o., mouse, 2 hours observation
Experimental: Male ddY mice, weighing 18-25 g, were used in groups of 3 animals each. […] Psychopharmacologia, 13, 222-227 (1968)], comprehensive observation of behavioral and physiologic states were carried out for 2 hours after the oral treatment with 100 mg/kg of the test compound, dissolved or suspended in a 0.5% tragacanth solution. Liability of the test compounds to the central nervous system effect was expressed with the following marks, according to the total sum of potencies for the individually analyzed effects, such as catalepsy, ptosis, hypolocomotin, etc.

CNS effect [2]: -
SMILES: C=CCCOc1cc(N)c(Cl)cc1C(=O)NCC1CN(Cc2ccccc2)CCO1 (centres unmarked) [Example 119]
change in vivo at 2 mg/kg [1]: 48.4%
